How the values were obtained:
K-562 = assay: NCI anticancer screening (SRB), Leukemia subpanel; type: cell-based, human; settings: for GI%: 10.0 µM in one dose
SR = assay: NCI anticancer screening (SRB), Leukemia subpanel; type: cell-based, human; settings: for GI%: 10.0 µM in one dose
A549/ATCC = assay: NCI anticancer screening (SRB), Non-Small Cell Lung Cancer subpanel; type: cell-based, human; settings: for GI%: 10.0 µM in one dose
EKVX = assay: as above; type: cell-based, human; settings: for GI%: 10.0 µM in one dose
HOP-62 = assay: as above; type: cell-based, human; settings: for GI%: 10.0 µM in one dose
HCT-116 = assay: NCI anticancer screening (SRB), Colon Cancer subpanel; type: cell-based, human; settings: for GI%: 10.0 µM in one dose
SW-620 = assay: as above; type: cell-based, human; settings: for GI%: 10.0 µM in one dose
SF-295 = assay: NCI anticancer screening (SRB), CNS Cancer subpanel; type: cell-based, human; settings: for GI%: 10.0 µM in one dose
LOX IMVI = assay: NCI anticancer screening (SRB), Melanoma subpanel; type: cell-based, human; settings: for GI%: 10.0 µM in one dose
MDA-MB-435 = assay: NCI anticancer screening (SRB), Melanoma subpanel; type: cell-based, human; settings: for GI%: 10.0 µM in one dose
SK-MEL-28 = assay: NCI anticancer screening (SRB), Melanoma subpanel; type: cell-based, human; settings: for GI%: 10.0 µM in one dose
UACC-62 = assay: NCI anticancer screening (SRB), Melanoma subpanel; type: cell-based, human; settings: for GI%: 10.0 µM in one dose
IGROV1 = assay: NCI anticancer screening (SRB), Ovarian Cancer subpanel; type: cell-based, human; settings: for GI%: 10.0 µM in one dose
OVCAR-4 = assay: as above; type: cell-based, human; settings: for GI%: 10.0 µM in one dose
OVCAR-5 = assay: as above; type: cell-based, human; settings: for GI%: 10.0 µM in one dose
ACHN = assay: NCI anticancer screening (SRB), Renal Cancer subpanel; type: cell-based, human; settings: for GI%: 10.0 µM in one dose
RXF 393 = assay: as above; type: cell-based, human; settings: for GI%: 10.0 µM in one dose
TK-10 = assay: as above; type: cell-based, human; settings: for GI%: 10.0 µM in one dose
UO-31 = assay: as above; type: cell-based, human; settings: for GI%: 10.0 µM in one dose
MDA-MB-231/ATCC = assay: NCI anticancer screening (SRB), Breast Cancer subpanel; type: cell-based, human; settings: for GI%: 10.0 µM in one dose
in vitro = settings: human
Method: the measured protein at the end of the drug treatment as compared to that at the beginning) indicating a net loss of cells following treatment was calculated from [(Ti − Tz)/Tz] […] = − 50.
Values were calculated for each of these three parameters if the activity level was reached; however, if the effect was not reached or exceeded, that parameter's value was expressed as more or less than the maximum or minimum concentration tested. The log GI50, log TGI, and log LC50 were then determined and defined as the mean of the logs of the individual GI50, TGI, and LC50 values. The lowest values are obtained with the most sensitive cell lines. The compound with log GI50 values −4 and <−4 was declared active.
2. In vitro cytotoxic activity towards normal fibroblast (WI-38) cells Cell Lines were obtained from the American Type Culture Collection; cells were cultured using DMEM (Invitrogen/Life Technologies) supplemented with 10% FBS (Hyclone), ten ug/ml of insulin (Sigma), and 1% penicillin–streptomycin. Cultures were removed from the incubator into a laminar flow hood, reconstituted with 3 mL of balanced salt solution without phenol red and serum, and then added to an amount equal to 10% of the culture medium volume. Cultures returned to the incubator for 2–4 h. After the incubation period, the resulting formazan crystals dissolved […]
medium volume. The absorbance was measured Spectrophotometrically at a wavelength of 570 […]
3. In vitro cyclooxygenase (COX-2) inhibition assay
The ability of the test compounds to inhibit COX-2 was determined using an enzyme immunoassay […]
manufacturer’s instructions.

Bcl-2 = assay: Apoptotic markers assay, Bcl-2 expression in MCF-7 cells; type: cell-based, human; settings: MCF-7 cells treated at IC50 concentrations; vs untreated control = 1
Method: We measured the apoptosis promoter Bax levels, the apoptosis inhibitor Bcl−2, and the apoptosis coordination enzymes caspase-8 and caspase-9 [32].
The apoptotic marker method was carried out using the reported procedure using MCF-7, the cancer cell line (Supplementary Materials). […]
photomultiplier voltage and for compensation setting adjustment to eliminate spectral overlap between the FL1 and the FL2 signals.
6. Cell cycle analysis
Breast carcinoma (MCF-7) cell was seeded at 2 × 10^5 cells/well density and incubated for 24 h in six-well plates. Foetal bovine serum (10%) was added, and the cells were incubated at 37 °C in an atmosphere of 5% CO2. The medium was replaced with 1% (v/v) DMSO containing 10.0 μM of […]
with 70% ethanol, rinsed with phosphate-buffered saline, and then stained with the DNA fluorochrome propidium iodide (PI) for 15 min at 37 °C. Then, samples were analyzed by flow cytometry using a FACSCalibur (Becton Dickinson). The cell cycle distributions were calculated using CellQuest software (Becton Dickinson).
7. Caspase-8 and 9 activation assay
A breast carcinoma (MCF-7) cell line was obtained from ATCC. […]
allowed cells to grow at 37 °C, stimulated with the compounds to be tested for caspase-8 or caspase-9 and lysed with Cell Extraction Buffer. […]

EGFR = EGFR (Homo sapiens, UniProt P00533); assay: EGFR tyrosine kinase inhibition assay (Kinase-Glo MAX)
EGFR, sequence (P00533 25-1210): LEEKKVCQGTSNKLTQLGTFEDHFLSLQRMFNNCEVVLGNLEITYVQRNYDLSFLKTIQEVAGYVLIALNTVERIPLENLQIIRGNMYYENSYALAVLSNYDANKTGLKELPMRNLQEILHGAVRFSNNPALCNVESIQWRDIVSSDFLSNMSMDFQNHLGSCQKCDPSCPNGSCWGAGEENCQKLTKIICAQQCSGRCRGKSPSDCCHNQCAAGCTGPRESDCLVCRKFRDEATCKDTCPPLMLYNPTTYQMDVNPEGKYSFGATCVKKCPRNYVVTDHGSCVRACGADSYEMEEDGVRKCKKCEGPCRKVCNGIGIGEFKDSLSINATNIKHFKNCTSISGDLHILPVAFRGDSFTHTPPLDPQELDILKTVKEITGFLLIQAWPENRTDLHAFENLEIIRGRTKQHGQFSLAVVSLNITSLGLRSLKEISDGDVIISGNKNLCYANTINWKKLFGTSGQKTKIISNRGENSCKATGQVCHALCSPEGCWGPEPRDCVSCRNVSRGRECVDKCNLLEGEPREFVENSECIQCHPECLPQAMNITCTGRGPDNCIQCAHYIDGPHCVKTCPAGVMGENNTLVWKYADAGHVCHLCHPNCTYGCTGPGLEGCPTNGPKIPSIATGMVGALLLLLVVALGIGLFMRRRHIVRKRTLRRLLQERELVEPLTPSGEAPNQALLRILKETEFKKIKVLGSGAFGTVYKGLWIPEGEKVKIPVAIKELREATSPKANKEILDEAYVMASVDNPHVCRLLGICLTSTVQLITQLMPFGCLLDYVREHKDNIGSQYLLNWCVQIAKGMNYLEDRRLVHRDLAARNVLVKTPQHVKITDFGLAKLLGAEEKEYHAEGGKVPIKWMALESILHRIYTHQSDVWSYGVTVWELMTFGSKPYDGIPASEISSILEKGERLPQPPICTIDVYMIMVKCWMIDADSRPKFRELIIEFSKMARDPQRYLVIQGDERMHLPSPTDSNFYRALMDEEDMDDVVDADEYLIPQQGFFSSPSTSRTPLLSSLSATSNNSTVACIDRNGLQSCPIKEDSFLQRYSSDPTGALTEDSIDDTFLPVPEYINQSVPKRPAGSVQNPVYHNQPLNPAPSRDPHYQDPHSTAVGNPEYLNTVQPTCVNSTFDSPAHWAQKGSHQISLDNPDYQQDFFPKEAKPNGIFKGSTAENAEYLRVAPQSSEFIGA

SK-MEL-5 = test system: SK-MEL-5; parameters: method as in https://dtp.cancer.gov/dtpstandard/dwindex/index.jsp; settings: ref https://dtp.cancer.gov/dtpstandard/dwindex/index.jsp; cited from earlier work
RPMI-8226 = test system: RPMI-8226; parameters: method as in https://dtp.cancer.gov/dtpstandard/dwindex/index.jsp; settings: PRMI-8226; ref https://dtp.cancer.gov/dtpstandard/dwindex/index.jsp; cited from earlier work
[1] = Homo sapiens, five concentrations

**Q.** For `CCN(CC)c1ccc(C=NNC(=O)c2ccc(NS(C)(=O)=O)cc2)c(O)c1` [Compound 8], which GI% (K-562) is on record?
**A.** 86%

**Q.** What about the GI50 (K-562; Homo sapiens, K562, five concentrations) of the same compound?
**A.** 0.492 µM

**Q.** And the GI% (SR)?
**A.** 89%

**Q.** What about the GI50 (SR; [1]) of the same compound?
**A.** 0.141 µM

**Q.** What about the GI% (A549/ATCC) of the same compound?
**A.** 88%

**Q.** What about the GI50 (A549/ATCC; [1]) of the same compound?
**A.** 1.34 µM

**Q.** What about the GI% (EKVX) of the same compound?
**A.** 84%

**Q.** What about the GI50 (EKVX; [1]) of the same compound?
**A.** 0.386 µM

**Q.** And the GI% (HOP-62)?
**A.** 87%

**Q.** And the GI50 (HOP-62; [1])?
**A.** 0.189 µM

**Q.** And the GI% (HCT-116)?
**A.** 78%

**Q.** What about the GI50 (HCT-116; Homo sapiens) of the same compound?
**A.** 0.263 µM

**Q.** And the GI% (SW-620)?
**A.** 63%

**Q.** What about the GI50 (SW-620; [1]) of the same compound?
**A.** 0.471 µM

**Q.** What about the GI% (SF-295) of the same compound?
**A.** 90%

**Q.** And the GI50 (SF-295; [1])?
**A.** 0.517 µM

**Q.** What about the GI% (LOX IMVI) of the same compound?
**A.** 100%

**Q.** What about the GI50 (LOX IMVI; [1]) of the same compound?
**A.** 0.209 µM

**Q.** What about the GI% (MDA-MB-435) of the same compound?
**A.** 71%

**Q.** What about the GI50 (MDA-MB-435; [1]) of the same compound?
**A.** 0.558 µM

**Q.** And the GI% (SK-MEL-28)?
**A.** 77%

**Q.** And the GI50 (SK-MEL-28; [1])?
**A.** 0.381 µM

**Q.** And the GI% (UACC-62)?
**A.** 100%

**Q.** And the GI50 (UACC-62; [1])?
**A.** 0.375 µM

**Q.** What about the GI% (IGROV1) of the same compound?
**A.** 80%

**Q.** What about the GI50 (IGROV1; Homo sapiens, IGROV-1, five concentrations) of the same compound?
**A.** 0.544 µM

**Q.** What about the GI% (OVCAR-4) of the same compound?
**A.** 69%

**Q.** What about the GI50 (OVCAR-4; [1]) of the same compound?
**A.** 0.388 µM

**Q.** And the GI% (OVCAR-5)?
**A.** 54%

**Q.** And the GI50 (OVCAR-5; [1])?
**A.** 1.89 µM

**Q.** What about the GI% (ACHN) of the same compound?
**A.** 84%

**Q.** What about the GI50 (ACHN; [1]) of the same compound?
**A.** 0.513 µM

**Q.** What about the GI% (RXF 393) of the same compound?
**A.** > 100%

**Q.** And the GI50 (RXF 393; [1])?
**A.** 1.04 µM

**Q.** And the GI% (TK-10)?
**A.** 52%

**Q.** What about the GI50 (TK-10; [1]) of the same compound?
**A.** 1.05 µM

**Q.** And the GI% (UO-31)?
**A.** 87%

**Q.** What about the GI50 (UO-31; [1]) of the same compound?
**A.** 0.346 µM

**Q.** What about the GI% (MDA-MB-231/ATCC) of the same compound?
**A.** 62%

**Q.** What about the GI50 (MDA-MB-231/ATCC; [1]) of the same compound?
**A.** 0.425 µM

**Q.** And the IC50 (in vitro)?
**A.** 82.1 µM

**Q.** And the “Bcl2, Gene Expression (Fold Change)” value (Bcl-2)?
**A.** 0.232 fold change

**Q.** What about the IC50 (EGFR) of the same compound?
**A.** 0.166 ± 0.033 µM

**Q.** Which GI% (K-562) does the source give for `CS(=O)(=O)Nc1ccc(C(=O)NN=Cc2ccccc2O)cc1` [Compound 7] here?
**A.** 26%

**Q.** And the GI% (SR)?
**A.** 67%

**Q.** What about the GI% (A549/ATCC) of the same compound?
**A.** 11%

**Q.** And the GI% (EKVX)?
**A.** 26%

**Q.** What about the GI% (HOP-62) of the same compound?
**A.** 61%

**Q.** What about the GI% (HCT-116) of the same compound?
**A.** 59%

**Q.** And the GI% (SW-620)?
**A.** 35%

**Q.** And the GI% (SF-295)?
**A.** 35%

**Q.** What about the GI% (LOX IMVI) of the same compound?
**A.** 53%

**Q.** What about the GI% (MDA-MB-435) of the same compound?
**A.** 24%

**Q.** And the GI% (SK-MEL-28)?
**A.** 37%

**Q.** What about the GI% (UACC-62) of the same compound?
**A.** 35%

**Q.** What about the GI% (IGROV1) of the same compound?
**A.** 25%

**Q.** What about the GI% (OVCAR-4) of the same compound?
**A.** 53%

**Q.** And the GI% (OVCAR-5)?
**A.** 23%

**Q.** And the GI% (ACHN)?
**A.** 46%

**Q.** What about the GI% (RXF 393) of the same compound?
**A.** 21%

**Q.** What about the GI% (TK-10) of the same compound?
**A.** 21%

**Q.** And the GI% (UO-31)?
**A.** 64%

**Q.** What about the GI% (MDA-MB-231/ATCC) of the same compound?
**A.** 34%

**Q.** What about the IC50 (in vitro) of the same compound?
**A.** 111 µM

**Q.** And the “Bcl2, Gene Expression (Fold Change)” value (Bcl-2)?
**A.** 0.201 fold change

**Q.** What about the IC50 (EGFR) of the same compound?
**A.** 0.752 ± 0.05 µM

**Q.** Which GI50 (SK-MEL-5) does the source give for `COc1cc2ncnc(Nc3ccc(F)c(Cl)c3)c2cc1OCCCN1CCOCC1` [Gefitinib, gefitinib] here?
**A.** 3.16 µM

**Q.** For `C#Cc1cccc(Nc2ncnc3cc(OCCOC)c(OCCOC)cc23)c1` [Erlotinib, erlotinib], which GI50 (RPMI-8226) is on record?
**A.** 25.1 µM

**Q.** Which results are given for `Cc1ccc(-c2cc(C(F)(F)F)nn2-c2ccc(S(N)(=O)=O)cc2)cc1` [Celecoxib, celecoxib]?
**A.** GI50 (RPMI-8226): 3.98 µM; GI50 (SK-MEL-5): 15.8 µM
